Patent publication US9938587B2 (priority 2011, dated 2018)

Tests used:
[1] = tested on: DNA repair reporter vectors; assay: HCR of DNA repair reporter vectors treated with Cisplatin; type: cell-based; conditions: reporter vectors treated with Cisplatin before transfection; effect more pronounced in XPA and XPF deficient cells
MGMT = target: T1, MGMT (Homo sapiens, UniProt P16455); assay: O^6Methylguanine HCR (mPlum:T208C reporter), MGMT dependence of signal; type: cell-based; conditions: TK6+MGMT cells incubated with compound before and after transfection
T1 construct: expressed in transfected cells; host or cells: TK6 lymphoblastoid cells (MGMT-deficient) complemented with MGMT (TK6+MGMT)
T1 sequence (P16455 1-207): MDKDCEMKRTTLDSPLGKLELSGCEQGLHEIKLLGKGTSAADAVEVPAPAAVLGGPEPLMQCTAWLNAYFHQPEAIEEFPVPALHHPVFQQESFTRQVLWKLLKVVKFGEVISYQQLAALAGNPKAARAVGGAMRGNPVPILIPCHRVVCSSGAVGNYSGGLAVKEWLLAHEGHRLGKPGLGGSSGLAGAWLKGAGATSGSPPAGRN
Description: FIG. 46 is a bar graph showing that the lack of signal is MGMT dependent. BnG stands for O^6-benzylguanine, which inhibits MGMT.
FIG. 44 is an illustration providing an assay for O^6Methylguanine HCR. An […] in fluorescence is expected when the reporter plasmid containing the mPlum:T208C mutation is treated with an agent that induces O^6MeG.
FIG. 46 is a bar graph showing that the lack of signal is MGMT dependent. Reporter expression has been normalized to that for TK6. As expected, the highest reporter expression is observed in MGMT deficient cells.

[2] = tested on: fluorescent reporter plasmid DNA; assay: HCR of plasmids containing etheno lesions induced by CAA; type: cell-based, Human; conditions: plasmids treated with CAA; lymphoblastoid cell lines
From the text: Dose and cell line dependent inhibition of transcription in plasmids treated with CAA is shown at right.

N.N.[Cl][Pt][Cl] [Cisplatin]
fluorescent reporter expression [1]: suppresses florescent reporter expression in a dose dependent manner

Nc1nc(OCc2ccccc2)c2nc[nH]c2n1 [O^6Benzylguanine, O^6-benzylguanine]
reporter expression normalized to TK6 (MGMT): elevated reporter expression similar to that of the MGMT deficient TK6 cells

O=CCCl [chloroacetaldehyde]
fluorescent reporter expression [2]: dose-dependent decrease in fluorescent reporter expression
